Reference: publication PMC3677530 (Analytical biochemistry, 2013)
Several values for one entry are separate records, joined by “and”; a condition that tells them apart may be missing. Equal values may be shown once. Read-outs that look alike come from different tables or passages of the source.

Columns and labels:
[1] = target: human cannabinoid CB1 receptor (Homo sapiens, UniProt P21554); assay: cell-based; format: cell-based; settings: for CB2/CB1: ratio of the IC50 values CB2/CB1, plate-based assay
[2] = target: human cannabinoid CB2 receptor (Homo sapiens, UniProt P34972); assay: cell-based; settings: for inhibition of internalization (CB2): 2 nM [3H]-CP55,940, CHO-CB2
CB2 receptor = settings: ref Tam et al [25]; cited from earlier work

human cannabinoid CB2 receptor, sequence (P34972 whole entry): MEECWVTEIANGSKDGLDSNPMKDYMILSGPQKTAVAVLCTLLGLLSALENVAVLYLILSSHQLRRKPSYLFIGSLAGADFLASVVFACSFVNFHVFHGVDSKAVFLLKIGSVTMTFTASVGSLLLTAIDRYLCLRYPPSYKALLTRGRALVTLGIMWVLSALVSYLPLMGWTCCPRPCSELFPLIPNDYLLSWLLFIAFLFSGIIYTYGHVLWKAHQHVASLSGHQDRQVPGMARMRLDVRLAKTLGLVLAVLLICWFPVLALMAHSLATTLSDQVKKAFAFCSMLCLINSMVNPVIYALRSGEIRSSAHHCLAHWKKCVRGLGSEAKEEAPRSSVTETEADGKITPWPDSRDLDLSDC
human cannabinoid CB1 receptor, sequence (P21554 whole entry): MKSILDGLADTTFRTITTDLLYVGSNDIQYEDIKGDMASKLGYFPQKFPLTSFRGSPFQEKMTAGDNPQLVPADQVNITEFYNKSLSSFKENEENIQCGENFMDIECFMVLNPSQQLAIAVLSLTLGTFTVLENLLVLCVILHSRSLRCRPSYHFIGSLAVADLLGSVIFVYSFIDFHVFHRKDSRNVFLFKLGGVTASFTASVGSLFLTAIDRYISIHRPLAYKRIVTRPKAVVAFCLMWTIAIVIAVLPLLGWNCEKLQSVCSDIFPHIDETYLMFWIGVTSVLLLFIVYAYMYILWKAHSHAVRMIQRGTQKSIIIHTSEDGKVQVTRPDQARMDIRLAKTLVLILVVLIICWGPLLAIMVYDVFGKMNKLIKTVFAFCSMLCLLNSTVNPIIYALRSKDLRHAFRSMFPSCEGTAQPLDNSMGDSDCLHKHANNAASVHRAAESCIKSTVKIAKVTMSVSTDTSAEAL

| SMILES | inhibition of internalization (CB1) [1] | CB2/CB1 [1] | inhibition of internalization (CB2) [2] | IC50 ([1]; read-out: CB1 (IC50 ±SD)) | also measured |
| --- | --- | --- | --- | --- | --- |
| CCCCCn1cc(C(=O)C23CC4CC(CC(C4)C2)C3)c2ccccc21 [AB001, 3-[(adamantan-1-yl)carbonyl]-1-pentylindole] | 32.6% | 58 | 30.3% | – | IC50 [1]: 29.5 ± 2.23 nM |
| Cc1c(C(=O)NN2CCCCC2)nn(-c2ccc(Cl)cc2Cl)c1-c1ccc(I)cc1 [AM251] | – | – | 60.5% | – | – |
| Cc1c(C(=O)NN2CCOCC2)nn(-c2ccc(Cl)cc2Cl)c1-c1ccc(I)cc1 [AM281] | – | – | 44.2% | 9.91 ± 0.99 nM | – |
| COc1ccc(C(=O)c2c(C)n(CCN3CCOCC3)c3cc(I)ccc23)cc1 [AM630] | – | – | 51.4% | – | – |
| Cc1c(C(=O)NN2CCS(=O)(=O)CC2)nn(-c2ccc(Cl)cc2Cl)c1-c1ccc(C#CCCC#N)cc1 [AM6545] | 43.7% | 309 | 50.7% | 4.2 ± 0.24 nM | – |
| C[C@@]12CC[C@@H]3[C@@](CC[C@H]4[C@@]3(C)CCC[C@@]4(C)C(=O)O)(CC1=O)C2 [Isosteviol] | – | 0.02 | 56.8% | – | IC50 [1]: 37.5 ± 6.9 nM; inhibition of internalization (CB1) ([1]; 10 nM [3H]-Win 55,212-2, CHO-CB1): 71.1%; IC50 [2]: 0.9 nM and 0.89 nM; selectivity for CB2 (over CB1) ([2]; plate-based assay): ~ 40 times |
| CC(C)[C@H](N=C(NS(=O)(=O)c1ccc(Cl)cc1)N1C[C@H](c2ccccc2)C(c2ccc(Cl)cc2)=N1)C(N)=O [JD5037-030] | 64.4% | 810 | 52.1% | 0.2 ± 0.05 nM | binding affinity for CB2 (CB2 receptor): 245 nM |
| Cc1c(C(=O)NN2CCCCC2)nn(-c2ccc(Cl)cc2Cl)c1-c1ccc(Cl)cc1 [Rimonabant] | – | – | 37.7% | – | – |
| CCCCCn1cc(C(=O)C2C(C)(C)C2(C)C)c2ccccc21 [UR144] | 29.6% | 3 | 38.1% | 27.2 ± 6.6 nM | selectivity for CB1 (over CB2) ([1]; plate-based assay): did not observe any selectivity |
